For one experiment, the target named is T1, CDK2/CycE (Homo sapiens, UniProt P24941).
T1 construct: purchased ProQinase GmbH (Freiburg, Germany); host or cells: insect cells (Sf9)
As to the kind of experiment: CDK2/CycE kinase assay (TR-FRET, 2 mM ATP). The class given is biochemical. The conditions noted are these: 2 mM ATP (high ATP); median; read-out: CDK2/CyclinE, 2 mM ATP (high ATP), IC50 (median). Summed up:
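GST-tagged human CDK2 and CycE from Sf9 cells, about 10 ng/ml, pre-incubated 15 min at 22 °C with compound in Tris/HCl pH 8.0 buffer. Reaction with 2 mM ATP and 0.75 µM biotinylated peptide for 25 min at 22 °C. Phospho-RB antibody TR-FRET (665/620 nm ratio) read after 1 h; data normalised to no-inhibitor and no-enzyme controls.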

In experiment [1] the test system is BRCA1 mRNA expression in MDA-MB-231 cells. Nature of the experiment: qRT-PCR assay: BRCA1 mRNA expression in MDA-MB-231. It is filed as cell-based, human. The conditions noted are these: Homo sapiens, median, read-out: RTqPCR-MDA-MB-231, IC50, BRCA1 (median). Summed up: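 MDA-MB-231 cells, 200,000/well, treated 24 h after plating with continuous 24 h compound exposure. RNA extracted, 600 ng reverse-transcribed, BRCA1 measured by RT-qPCR normalized to GAPDH.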
A general note: Quantitative PCR measures a nucleic acid by following its amplification.

In experiment [2] the test system is MDA-MB-231, human breast cancer cells. As to the kind of experiment: Proliferation assay MDA-MB-231 (crystal violet, 4 days). The class given is cell-based. The following applies: Homo sapiens, MDA-MB-231 cells, median, read-out: Prolif-MDA MB-231, IC50-[mol/l] (median). Summed up:
(§1)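 CAL-120 or MDA-MB-231 cells grown 24 h, then exposed 4 days to compound (0.01–10 micromol/L, 0.1% DMSO). Crystal violet staining, absorbance at 595 nm, normalised to a zero-point plate (0%) and untreated cells (100%); IC50 by 4-parameter fit.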

The test system of experiment [3] is CAL-120, human breast adenocarcinoma cells. Nature of the experiment: Proliferation assay CAL-120 (crystal violet, 4 days). The class given is cell-based. The conditions noted are these: Homo sapiens, CAL-120 cells, median, read-out: Prolif-CAL-120, IC50-[mol/l] (median). In short, it runs like this:
as §1

[4] abbreviates: MDA-MB-231, Inhibition of BRCA1 mRNA expression in MDA-MB-231 cells.

Structures are written as SMILES. Read-outs that look alike come from different tables or passages of the source.

The results in this text go back to patent US20230117034A1, “PYRAZOLOTRIAZINES” (Bayer Aktiengesellschaft, priority 2019, published 2023).

As to `Fc1ccc2[nH]c(CNc3nc(N4CCOCC4)nc4c(Cl)cnn34)nc2c1F` [Example 357], the IC50 at CDK2/CycE came out at 11900 nM; in experiment [1] (setting [4]), 6.05 nM; in experiment [2] (MDA-MB-231, 96 h) it was 10.4 nM; in experiment [3] (CAL-120, 96 h), 4.33 nM.
In the same order, the values of `CN(CC(C)(C)O)c1nc(NCc2nc3c(F)c(Cl)ccc3[nH]2)n2ncc(C3CC3)c2n1` [Example 387, 1-[(4-{[(5-chloro-4-fluoro-1H-benzimidazol-2-yl)methyl]amino}-8-cyclopropylpyrazolo[1,5-a][1,3,5]triazin-2-yl)(methyl)amino]-2-methylpropan-2-ol] are 5350 nM, 5.56 nM, 4.57 nM and 4.95 nM.
In the same order, the values of `Fc1c(Cl)ccc2[nH]c(CNc3nc(N4CCOCC4)nc4c(Br)cnn34)nc12` [Example 372, 8-bromo-N-[(5-chloro-4-fluoro-1H-benzimidazol-2-yl)methyl]-2-(morpholin-4-yl)pyrazolo[1,5-a][1,3,5]triazin-4-amine] are 3650 nM, 2.16 nM, 4.28 nM and 2.94 nM.
In the same order, the values of `Fc1c(Cl)ccc2[nH]c(CNc3nc(N4CCOCC4)nc4c(C5CC5)cnn34)nc12` [Example 370, N-[(5-chloro-4-fluoro-1H-benzimidazol-2-yl)methyl]-8-cyclopropyl-2-(morpholin-4-yl)pyrazolo[1,5-a][1,3,5]triazin-4-amine] are > 20000 nM, 5.63 nM, 7.18 nM and 3.59 nM.
In the case of `CN1CCN(c2nc(NCc3nc4cc(Cl)c(Cl)cc4[nH]3)n3ncc(Br)c3n2)CC1` [Example 330, 8-bromo-N-[(5,6-dichloro-1H-benzimidazol-2-yl)methyl]-2-(4-methylpiperazin-1-yl)pyrazolo[1,5-a][1,3,5]triazin-4-amine], the IC50 on CDK2/CycE came to 13800 nM; in experiment [1] (setting [4]), 5.68 nM; in experiment [2] (MDA-MB-231, 96 h), 3.38 nM; in experiment [3] (CAL-120, 96 h), 2.44 nM.
The like results for `CN1CCN(c2nc(NCc3nc4c(F)c(F)ccc4[nH]3)n3ncc(Cl)c3n2)CC1` [Example 358, 8-chloro-N-[(4,5-difluoro-1H-benzimidazol-2-yl)methyl]-2-(4-methylpiperazin-1-yl)pyrazolo[1,5-a][1,3,5]triazin-4-amine] were, in that order, > 20000 nM, 3.87 nM, 14.8 nM and 4.05 nM.
In the same order, the values of `Brc1cnn2c(NCc3nc4ccccc4[nH]3)nc(N3CCN4CCC3C4)nc12` (stereo not shown) [Example 350, N-[(1H-benzimidazol-2-yl)methyl]-8-bromo-2-(1,4-diazabicyclo[3.2.1]octan-4-yl)pyrazolo[1,5-a][1,3,5]triazin-4-amine] are 3390 nM, 13.7 nM, 13.7 nM and 4.35 nM.
Turning to `CN1CCN(c2nc(NCc3nc4cc(F)c(Cl)cc4[nH]3)n3ncc(Br)c3n2)CC1` [Example 337, 8-bromo-N-[(6-chloro-5-fluoro-1H-benzimidazol-2-yl)methyl]-2-(4-methylpiperazin-1-yl)pyrazolo[1,5-a][1,3,5]triazin-4-amine], the IC50 on CDK2/CycE was 17800 nM; in experiment [1] (setting [4]), < 10 nM; in experiment [2] (MDA-MB-231, 96 h), 2.45 nM; in experiment [3] (CAL-120, 96 h) it was 2.04 nM.
In the same order, the values of `FC(F)(F)c1ccc2[nH]c(CNc3nc(N4CCOCC4)nc4c(C5CC5)cnn34)nc2c1` [Example 322, 8-cyclopropyl-2-(morpholin-4-yl)-N-{[5-(trifluoromethyl)-1H-benzimidazol-2-yl]methyl}pyrazolo[1,5-a][1,3,5]triazin-4-amine] are > 20000 nM, 3.56 nM, 8.85 nM and 7.97 nM.
As for `Fc1cc2nc(CNc3nc(N4CC5CCC(C4)N5)nc4c(Br)cnn34)[nH]c2cc1Cl` [Example 348, 8-bromo-N-[(6-chloro-5-fluoro-1H-benzimidazol-2-yl)methyl]-2-(3,8-diazabicyclo[3.2.1]octan-3-yl)pyrazolo[1,5-a][1,3,5]triazin-4-amine], the IC50 at CDK2/CycE was 13200 nM; in experiment [1] (Inhibition of BRCA1 mRNA expression in MDA-MB-231 cells), 1.97 nM; in experiment [2] (96 h) it was 2 nM; in experiment [3] (96 h), 1.14 nM.
Regarding `CN(CC(C)(C)O)c1nc(NCc2nc3cc(C(F)(F)F)ccc3[nH]2)n2ncc(Br)c2n1` [Example 345, 1-{[8-bromo-4-({[5-(trifluoromethyl)-1H-benzimidazol-2-yl]methyl}amino)pyrazolo[1,5-a][1,3,5]triazin-2-yl](methyl)amino}-2-methylpropan-2-ol], the IC50 on CDK2/CycE was 6070 nM; in experiment [1] (setting [4]), 2.83 nM; in experiment [2] (MDA-MB-231, 96 h), 3.44 nM; in experiment [3] (CAL-120, 96 h), 3.05 nM.
In the same order, the values of `FC(F)(F)Oc1ccc2[nH]c(CNc3nc(N4C[C@H]5CC[C@@H](C4)N5)nc4c(Br)cnn34)nc2c1` [Example 382, 8-bromo-2-[(1R,5S)-3,8-diazabicyclo[3.2.1]octan-3-yl]-N-{[5-(trifluoromethoxy)-1H-benzimidazol-2-yl]methyl}pyrazolo[1,5-a][1,3,5]triazin-4-amine] are 14200 nM, 28.8 nM, 29.3 nM and 12.4 nM.
The like results for `CN1CCN(c2nc(NCc3nc4c(F)c(Cl)ccc4[nH]3)n3ncc(Br)c3n2)CC1` [Example 373, 8-bromo-N-[(5-chloro-4-fluoro-1H-benzimidazol-2-yl)methyl]-2-(4-methylpiperazin-1-yl)pyrazolo[1,5-a][1,3,5]triazin-4-amine] were, in that order, 7500 nM, 1.27 nM, 3.33 nM and 1.93 nM.
The like results for `Clc1cc2nc(CNc3nc(N4CCOCC4)nc4c(Br)cnn34)[nH]c2cc1Cl` [Example 329, 8-bromo-N-[(5,6-dichloro-1H-benzimidazol-2-yl)methyl]-2-(morpholin-4-yl)pyrazolo[1,5-a][1,3,5]triazin-4-amine] were, in that order, 9460 nM, 9.23 nM, 7.66 nM and 6.11 nM.
In the case of `Brc1cnn2c(NCc3nc4ccccc4[nH]3)nc(N3CCN4CCC3CC4)nc12` [Example 349, N-[(1H-benzimidazol-2-yl)methyl]-8-bromo-2-(1,4-diazabicyclo[3.2.2]nonan-4-yl)pyrazolo[1,5-a][1,3,5]triazin-4-amine], the IC50 is 1820 nM on CDK2/CycE; 15.6 nM in experiment [1] (setting [4]); 12.9 nM in experiment [2] (MDA-MB-231, 96 h); 3.76 nM in experiment [3] (CAL-120, 96 h).
For the compound `FC(F)(F)c1ccc2[nH]c(CNc3nc(N4CCOCC4)nc4c(Br)cnn34)nc2c1` [Example 339, 8-bromo-2-(morpholin-4-yl)-N-{[5-(trifluoromethyl)-1H-benzimidazol-2-yl]methyl}pyrazolo[1,5-a][1,3,5]triazin-4-amine], the IC50 at CDK2/CycE is 6740 nM; in experiment [1] (setting [4]), 7.85 nM; in experiment [2] (MDA-MB-231, 96 h), 7.45 nM; in experiment [3] (CAL-120, 96 h), 4.79 nM.
For the compound `CN1CCN(c2nc(NCc3nc4c(F)c(Cl)ccc4[nH]3)n3ncc(C4CC4)c3n2)CC1` [Example 371, N-[(5-chloro-4-fluoro-1H-benzimidazol-2-yl)methyl]-8-cyclopropyl-2-(4-methylpiperazin-1-yl)pyrazolo[1,5-a][1,3,5]triazin-4-amine], the IC50 on CDK2/CycE was > 20000 nM; in experiment [1] (setting [4]), 7.36 nM; in experiment [2] (MDA-MB-231, 96 h) it was 7.8 nM; in experiment [3] (CAL-120, 96 h), 3.9 nM.
The like results for `CN1CCN(c2nc(NCc3nc4cc(C(F)(F)F)ccc4[nH]3)n3ncc(Br)c3n2)CC1` [Example 344, 8-bromo-2-(4-methylpiperazin-1-yl)-N-{[5-(trifluoromethyl)-1H-benzimidazol-2-yl]methyl}pyrazolo[1,5-a][1,3,5]triazin-4-amine] were, in that order, 12400 nM, 2.34 nM, 4.82 nM and 2.7 nM.
In the case of `Fc1cc2nc(CNc3nc(N4CCOCC4)nc4c(Br)cnn34)[nH]c2cc1Cl` [Example 336, 8-bromo-N-[(6-chloro-5-fluoro-1H-benzimidazol-2-yl)methyl]-2-(morpholin-4-yl)pyrazolo[1,5-a][1,3,5]triazin-4-amine], the IC50 at CDK2/CycE came out at 8950 nM; in experiment [1] (setting [4]), 8 nM; in experiment [2] (MDA-MB-231, 96 h), 4.27 nM; in experiment [3] (CAL-120, 96 h), 3.21 nM.
